How the values were obtained:
MDR1 = biological target: T1, MDR1 (Homo sapiens, UniProt P08183); assay: Inhibition of MDR1-mediated rhodamine 123 efflux in MDCK-MDR1 cells; type: cell-based; settings: for inhibitory effect on efflux of MDR1-mediated rhodamine 123: GA 50–5000 μg/L, PCA 10–1000 μg/L
T1 construct: host or cells: MDCK
Source text: (§1) The human multidrug resistance protein (MDR)1-transfected Madin–Darby Canine Kidney (MDCK) cells, human breast cancer resistance protein (BCRP)-transfected MDCK cells, human organic anion transporter (OAT)1-transfected MDCK cells, OAT3-transfected second portion of proximal tubule (S2) cells, human organic cation transporter (OCT)2-transfected S2 cells, human organic anion transporting polypeptide (OATP)1B1-transfected human embryonic kidney 293 (HEK293) cells and their MOCK cells were kindly provided by Japan Fuji Biomedical Co., Ltd. (Osaka, Japan). Cells were cultured in DMEM supplemented with 10% FBS, 100 units/mL penicillin and 100 […]. All cells were incubated in a humidified atmosphere of 95% air and 5% CO2 at 37 °C. A solution of 0.25% trypsin-EDTA was used to detach the cells from flasks. Cell culture flasks, 24-well cell culture plates, and transwell polycarbonate inserts (12 mm diameter, 0.4 μm pore size) were purchased from Corning Co-star Corp. (Bedford, MA).
Inhibitory effects of GA and PCA on efflux transporters MDR1 and BCRP were investigated with the fluorogenic substrates rhodamine 123 (10 µM) and lucifer yellow (10 µM), respectively. The positive control inhibitors of MDR1 and BCRP were verapamil (10 µM) and cyclosporine (20 µM), respectively. The efflux experiments were adapted from previously reported methods with minor modifications (Reznicek et al. [2017]). Briefly, MDCK-MDR1, MDCK-BCRP and MDCK-mock cells were trypsinized and uniformly suspended in the designated volume of HBSS to provide a density of 4.0 × 10^5 cells/mL. For 0.5 mL of cell suspension and 1.5 mL of HBSS buffer medium were added in the apical and basolateral compartments of 12-well Transwell plates. After cultivation for 7 d, cells were washed twice and equilibrated for 30 min at 37 °C with the pre-warmed HBSS buffer. The integrity of cell monolayers was verified by the determination of the value of transepithelial electrical resistance (TEER) using a Millipore Millicell-ERS system (Millipore Corporation, Bedford, MA) (200–300 Ω × cm^2). An aliquot of 1.5 mL transport buffer containing probe substrates was added in the basolateral compartment to initiate the efflux in the presence or absence of GA (50, 150, 500, 1500 and 5000 μg/L), PCA (10, 30, 100, 300 and 1000 μg/L) or positive inhibitors at 37 °C. An aliquot of 0.5 mL empty transport buffer was placed in the apical compartment. After 2 h of co-incubation, 100 μL of HBSS in the apical compartment was transferred to 96-well plates. Fluorescence was measured at 485 nm (excitation) and 546 nm (emission) for rhodamine 123, and 425 nm (excitation) and 528 nm (emission) for Lucifer yellow. The final concentration of DMSO in the assay was less than 0.1%. All experiments were performed in triplicate.

BCRP = biological target: T2, BCRP (Homo sapiens, UniProt Q9UNQ0); assay: Inhibition of BCRP-mediated lucifer yellow efflux in MDCK-BCRP cells; type: cell-based; settings: for inhibitory effect on efflux of BCRP-mediated lucifer yellow: GA 50–5000 μg/L, PCA 10–1000 μg/L
T2 sequence (Q9UNQ0 1-655): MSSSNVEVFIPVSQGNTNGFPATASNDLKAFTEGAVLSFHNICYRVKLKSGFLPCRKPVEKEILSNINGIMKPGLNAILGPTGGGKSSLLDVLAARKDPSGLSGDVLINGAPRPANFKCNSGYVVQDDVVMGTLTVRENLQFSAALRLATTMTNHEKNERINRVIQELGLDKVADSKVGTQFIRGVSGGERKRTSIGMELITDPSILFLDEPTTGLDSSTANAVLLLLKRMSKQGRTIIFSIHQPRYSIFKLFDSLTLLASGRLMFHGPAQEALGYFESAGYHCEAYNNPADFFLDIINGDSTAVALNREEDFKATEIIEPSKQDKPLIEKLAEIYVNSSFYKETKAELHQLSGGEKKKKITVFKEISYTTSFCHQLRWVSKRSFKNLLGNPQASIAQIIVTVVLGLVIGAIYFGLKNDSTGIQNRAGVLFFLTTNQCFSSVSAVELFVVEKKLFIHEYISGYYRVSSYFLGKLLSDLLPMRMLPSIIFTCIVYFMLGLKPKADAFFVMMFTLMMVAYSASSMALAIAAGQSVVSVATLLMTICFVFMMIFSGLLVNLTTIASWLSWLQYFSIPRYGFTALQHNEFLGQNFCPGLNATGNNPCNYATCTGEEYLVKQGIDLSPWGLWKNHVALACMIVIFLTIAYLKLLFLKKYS
Source text: as §1
Inhibitory effects of GA and PCA on efflux transporters MDR1 and BCRP were investigated with the fluorogenic substrates rhodamine 123 (10 µM) and lucifer yellow (10 µM), respectively. The positive control inhibitors of MDR1 and BCRP were verapamil (10 µM) and cyclosporine (20 µM), respectively. The efflux experiments were adapted from previously reported methods with minor modifications (Reznicek et al. [2017]). Briefly, MDCK-MDR1, MDCK-BCRP and MDCK-mock cells were trypsinized and uniformly suspended in the designated volume of HBSS to provide a density of 4.0 × 10^5 cells/mL. For 0.5 mL of cell suspension and 1.5 mL of HBSS buffer medium were added in the apical and basolateral compartments of 12-well Transwell plates. After cultivation for 7 d, cells were washed twice and equilibrated for 30 min at 37 °C with the pre-warmed HBSS buffer. […] Fluorescence was measured at 485 nm (excitation) and 546 nm (emission) for rhodamine 123, and 425 nm (excitation) and 528 nm (emission) for Lucifer yellow. […]

[1] = rats, ref Ma et al. 2016, cited from earlier work

T1 sequence (P08183 whole entry): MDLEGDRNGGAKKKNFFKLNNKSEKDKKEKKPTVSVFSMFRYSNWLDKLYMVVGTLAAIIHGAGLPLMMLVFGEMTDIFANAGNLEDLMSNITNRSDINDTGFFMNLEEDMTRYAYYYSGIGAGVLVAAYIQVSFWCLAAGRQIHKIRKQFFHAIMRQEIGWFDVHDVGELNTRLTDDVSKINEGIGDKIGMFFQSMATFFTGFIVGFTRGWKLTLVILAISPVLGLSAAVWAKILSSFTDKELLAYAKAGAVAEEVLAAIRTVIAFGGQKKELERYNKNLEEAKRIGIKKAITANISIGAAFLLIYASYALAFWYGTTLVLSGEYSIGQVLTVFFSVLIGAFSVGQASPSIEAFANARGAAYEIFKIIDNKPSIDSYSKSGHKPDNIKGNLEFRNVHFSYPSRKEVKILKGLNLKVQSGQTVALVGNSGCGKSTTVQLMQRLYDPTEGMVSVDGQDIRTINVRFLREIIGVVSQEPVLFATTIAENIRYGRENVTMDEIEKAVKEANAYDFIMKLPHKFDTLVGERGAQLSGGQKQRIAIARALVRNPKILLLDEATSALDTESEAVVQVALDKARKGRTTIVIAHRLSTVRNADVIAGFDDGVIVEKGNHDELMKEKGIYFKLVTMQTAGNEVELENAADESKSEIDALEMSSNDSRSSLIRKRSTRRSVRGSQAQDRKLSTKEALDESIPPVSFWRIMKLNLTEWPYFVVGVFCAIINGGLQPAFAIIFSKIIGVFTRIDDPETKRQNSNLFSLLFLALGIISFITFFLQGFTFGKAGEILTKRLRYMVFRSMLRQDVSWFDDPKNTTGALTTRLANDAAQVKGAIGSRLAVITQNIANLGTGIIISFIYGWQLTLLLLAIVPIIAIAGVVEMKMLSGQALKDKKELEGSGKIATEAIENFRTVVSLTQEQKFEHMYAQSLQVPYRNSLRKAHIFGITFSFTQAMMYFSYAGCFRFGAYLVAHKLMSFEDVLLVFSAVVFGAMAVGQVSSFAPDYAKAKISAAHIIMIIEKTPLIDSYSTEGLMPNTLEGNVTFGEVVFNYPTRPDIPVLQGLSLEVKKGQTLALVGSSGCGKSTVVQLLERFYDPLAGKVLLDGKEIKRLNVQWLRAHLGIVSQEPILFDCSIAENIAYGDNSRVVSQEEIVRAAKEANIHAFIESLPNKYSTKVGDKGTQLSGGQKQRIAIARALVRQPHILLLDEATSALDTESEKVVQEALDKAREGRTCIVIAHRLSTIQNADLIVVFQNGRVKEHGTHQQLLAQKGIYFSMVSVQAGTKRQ

SMILES: O=C(O)c1cc(O)c(O)c(O)c1 [GA, gallic acid]
- inhibitory effect on efflux of MDR1-mediated rhodamine 123 (MDR1): no significant inhibitory effect
- efflux of rhodamine 123 compared with the control (MDR1; relatively high concentrations): significant increase
- inhibitory effect on efflux of BCRP-mediated lucifer yellow (BCRP): no significant inhibitory effect
- concentration in rat kidney tissue [1]: 1218 ng/g

SMILES: O=C(O)c1ccc(O)c(O)c1 [PCA, protocatechuic acid]
- inhibitory effect on efflux of MDR1-mediated rhodamine 123 (MDR1): no significant inhibitory effect
- activity at 2 h, 6.5 µM (MDR1; human, probe rhodamine 123 (10 µM), MDCK-MDR1 cells, PCA 1000 μg/L (6.5 µM), read-out: efflux of rhodamine 123, % of control): ~190%
- inhibitory effect on efflux of BCRP-mediated lucifer yellow (BCRP): no significant inhibitory effect
- efflux of lucifer yellow compared with the control (BCRP; relatively high concentrations): significant increase
- unchanged amount that survived the metabolism, % of the total intake ([1]; urinary excretion): ~15.7%
